Drawing on patent US10357481B2 (MERCK SHARP & DOHME CORP., priority 2015, dated 2019), this text covers Ki for 31 compounds.

This test deals with T1, human PDE2A1 (Homo sapiens, UniProt O00408).
T1 construct: GST; purchased BPS Bioscience (San Diego, Calif.) 60020; host or cells: insect cells
T1 sequence (O00408 1-920 isoform O00408-2): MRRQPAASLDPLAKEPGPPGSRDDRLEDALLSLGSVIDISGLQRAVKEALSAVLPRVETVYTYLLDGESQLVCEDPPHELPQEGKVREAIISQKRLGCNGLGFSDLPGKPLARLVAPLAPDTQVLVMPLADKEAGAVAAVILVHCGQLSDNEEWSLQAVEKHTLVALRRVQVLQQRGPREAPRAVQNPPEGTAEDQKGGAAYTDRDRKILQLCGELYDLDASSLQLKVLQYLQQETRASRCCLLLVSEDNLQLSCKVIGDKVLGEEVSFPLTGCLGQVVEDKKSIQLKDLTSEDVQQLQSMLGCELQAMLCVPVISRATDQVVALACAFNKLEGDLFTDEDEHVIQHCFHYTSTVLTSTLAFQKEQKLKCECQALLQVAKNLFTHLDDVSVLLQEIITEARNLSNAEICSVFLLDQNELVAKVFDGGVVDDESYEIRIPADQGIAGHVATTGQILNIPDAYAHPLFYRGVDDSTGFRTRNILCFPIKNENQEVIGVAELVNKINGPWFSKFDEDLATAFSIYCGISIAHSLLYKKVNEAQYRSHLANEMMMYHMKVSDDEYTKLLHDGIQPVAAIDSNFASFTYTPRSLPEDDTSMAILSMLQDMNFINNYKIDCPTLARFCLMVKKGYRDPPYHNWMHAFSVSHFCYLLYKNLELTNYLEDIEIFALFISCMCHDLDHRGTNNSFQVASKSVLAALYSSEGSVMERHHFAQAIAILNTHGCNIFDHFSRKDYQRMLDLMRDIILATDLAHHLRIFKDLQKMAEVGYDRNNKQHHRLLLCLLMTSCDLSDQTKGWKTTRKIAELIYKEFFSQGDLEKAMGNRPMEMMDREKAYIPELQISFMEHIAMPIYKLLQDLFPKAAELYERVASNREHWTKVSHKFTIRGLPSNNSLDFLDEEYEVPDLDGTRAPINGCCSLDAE
The test can be described thus: IMAP FP PDE selectivity panel, human PDE2A1. To be noted: Lab B; read-out: Human PDE2 Ki (nM) Lab B. The format is biochemical. A digest of the protocol:
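IMAP FP read-out, run at room temperature in parallel with PDE1–11: enzyme at 20% substrate conversion, 50 nM FAM-cAMP containing 1000 nM cGMP, Tris pH 7.2/MgCl2/DTT buffer. Compounds as ten 3-fold dilutions. Reaction 60 min, stopped with binding reagent for 1 h before polarization measurement.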
A word on the Ki: it is a measure of affinity in units of concentration, obtained from inhibition or displacement. As to `Cc1cc(N[C@](C)(c2ccc(OC(F)(F)F)cc2)C(C)(C)O)n2ncnc2n1` [Example 154, (3R)-2-Methyl-3-[(5-methyl[1,2,4]triazolo[1,5-a]pyrimidin-7-yl)amino]-3-[4-(trifluoromethoxy)phenyl]butan-2-ol], the Ki was more than 2960 nM.

Consider `C[C@@H](Nc1cnnc2ncnn12)c1ccc(S(F)(F)(F)(F)F)cc1` [Example 259, (R)—N-{1-[4-(Pentafluoro-λ^6-sulfanyl)phenyl]ethyl}-[1,2,4]triazolo[5,1-a][1,2,4]trizain-4-amine], for which the Ki was found to be 1430 nM.

On to `CC(C)(O)C(Nc1cc(C2CC2)nc2ncnn12)c1ccc(OC(F)(F)F)cc1F` (single isomer, unassigned) [Example 143, (1R or S)-1-[(5- Cyclopropyl [1,2,4]triazolo [1,5-a]pyrimidin-7-yl)amino)-1-[2-fluoro-4-(trifluoro-methoxy)phenyl]-2-methylpropan-2-ol], for which the Ki was 97 nM.

Regarding `Cc1cc(N[C@@H](c2ccc(C(F)(F)F)cc2)C(C)(C)O)n2ncnc2c1` [Example 265, (1S)-2-Methyl-1-[(7-methyl[1,2,4]triazolo[1,5-a]pyridin-5-yl)amino]-1-[4-(trifluoromethyl)phenyl]propan-2-ol], the Ki was found to be 82 nM.

In the case of `Cc1cc(N[C@@H](c2ccc(C(F)(F)F)c(F)c2)C(C)(C)C)n2nc(C3CC3)nc2n1` [Example 205, (R)-2-Cyclopropyl-N-(1-(3-fluoro-4-(trifluoromethyl)phenyl)-2,2-dimethylpropyl)-5-methyl-[1,2,4]triazolo [1,5-a]pyrimidin-7-amine], the Ki is 24 nM.

Take `Cc1cc(N[C@H](C)c2ccc(C(C)C)cc2)n2ncnc2n1` [Example 13, 5-Methyl-N-{(1R)-1-[4-(1-methylethyl)phenyl]ethyl}[1,2,4] triazolo[1,5-a]pyrimidin-7-amine]: the Ki came to 122 nM.

Take `CCC(O)(CC)C(Nc1cc(C)nc2ncnn12)c1ccc(C(F)(F)F)c(F)c1` (single isomer, unassigned) [Example 216, (S)- or (R)-3-((3-Fluoro-4-(trifluoromethyl)phenyl)(5-methyl-[1,2,4]triazolo [1,5-a]pyrimidin-7-ylamino)methyl) pentan-3-ol]: the Ki is 134 nM.

Turning to `Cc1cc(N[C@H](c2ccc(OC(F)(F)F)c(F)c2)C(C)(C)O)n2ncnc2n1` (single isomer, unassigned) [Example 91], the Ki is more than 2960 nM.

With `CC(C)(O)C(Nc1cc(C(F)F)nc2ncnn12)c1ccc(OC(F)F)cc1Cl` (single isomer, unassigned) [Example 183, (1S or R)-[2-Chloro-4-(difluoromethoxy)phenyl]-1-{[5-(difluoromethyl) [1,2,4]triazolo [1,5-a]pyrimidin-7-yl]amino}-2-methylpropan-2-ol], the Ki was found to be 15 nM.

With `CC(C)(N)C(Nc1cc(C(F)(F)F)nc2ncnn12)c1ccc(C(F)(F)F)c(F)c1` (single isomer, unassigned) [Example 254, (S)- or (R)-1-(3-Fluoro-4-(trifluoromethyl)phenyl)-2-methyl-N^1-(5-(trifluoromethyl)-[1,2,4]triazolo [1,5-a]pyrimidin-7-yl) propane-1,2-diamine], the Ki was more than 2960 nM.

With `C[C@H](Nc1cncc2ncnn12)c1ccc(C(F)(F)F)cc1` [Example 289], the Ki was more than 2960 nM.

Regarding “(R or S)-2,2-Dimethyl-3-(3-methyl-4-(trifluoromethoxy)phenyl)-3-(5-methyl-[1,2,4]triazolo[1,5-a]pyrimidin-7-ylamino)propan-1-ol [Example 231]”, the Ki is 7.3 nM.

Turning to `COCC(Nc1cc(C)nc2ncnn12)c1ccc(C(F)(F)F)c(F)c1` (single isomer, unassigned) [Example 209, (R)- or (S)-N-(1-(3-Fluoro-4-(trifluoromethyl)phenyl)-2-methoxyethyl)-5-methyl-[1,2,4]triazolo [1,5-a]pyrimidin-7-amine], the Ki was more than 2960 nM.

For `Cc1cc(N[C@@H](c2ccc(OC(F)F)cc2)C(C)(C)C)n2ncnc2n1` [Example 33, N-{(1R)-1-[4-(Difluoromethoxy)phenyl]-2,2-dimethylpropyl}-5-methyl[1,2,4]triazolo[1,5-a] pyrimidin-7-amine], the Ki came to 17 nM.

As for `FS(F)(F)(F)(F)c1ccc(C2(Nc3cc(C4CC4)nc4ncnn34)CC2)cc1` [Example 72, 5-Cyclopropyl-N-{1-[4-(pentafluoro-λ^6-sulfanyl)phenyl]cyclopropyl}[1,2,4] triazolo[1,5-a]pyrimidin-7-amine], the Ki amounted to 26 nM.

As to `Cc1cc(NC(c2ccc(CC(F)(F)F)cc2)C(C)(C)O)n2ncnc2n1` (single isomer, unassigned) [Example 118, (1S or R)-2-Methyl-1-[(5-methyl [1,2,4]triazolo [1,5-a]pyrimidin-7-yl)amino]-1-[4-(2,2,2-trifluoroethyl)phenyl]propan-2-ol], the Ki is more than 2960 nM.

With `OCCCc1cc(NC2(c3ccc(C(F)(F)F)c(F)c3)CC2)n2ncnc2n1` [Example 245, 3-(7-((1-(3-Fluoro-4-(trifluoromethyl)phenyl)cyclopropyl)amino)-[1,2,4]triazo[1,5-a]pyrimidin-5-yl)propan-1-ol], the Ki came out at 204 nM.

On to `Cc1cc(NC(c2ccc(C(F)(F)F)cc2F)C(C)(C)O)n2ncnc2n1` (single isomer, unassigned) [Example 114, (1S or R)-1-[2-Fluoro-4-(trifluoromethyl)phenyl]-2-methyl-1-[(5-methyl [1,2,4]triazolo [1,5-a]pyrimidin-7-yl)amino] propan-2-ol], for which the Ki is more than 2960 nM.

`Cc1cc(N[C@H](c2ccc(OC(F)(F)F)c(Cl)c2)C(C)(C)O)n2ncnc2n1` [Example 103, (1R)-1-[3-Chloro-4-(trifluoromethoxy)phenyl]-2-methyl-1-[(5-methyl[1,2,4]triazolo[1,5-a]pyrimidin-7-yl)amino]propan-2-ol]: the Ki turned out to be 34 nM.

Regarding `CC(C)(O)C(Nc1cc(C2CC2)nc2ncnn12)c1ccc(OC(F)(F)F)cc1F` (single isomer, unassigned) [Example 142, (1S or R)-1-[(5- Cyclopropyl [1,2,4]triazolo [1,5-a]pyrimidin-7-yl)amino]-1-[2-fluoro-4-(trifluoro-methoxy)phenyl]-2-methylpropan-2-ol], the Ki is more than 2960 nM.

For `CC(C)(C)c1ccc(C(Nc2cc(C(F)(F)F)nc3ncnn23)C(C)(C)O)cc1` (single isomer, unassigned) [Example 161, (1S or S)-1-(4-tert-Butylphenyl)-2-methyl-1-{[5-(trifluoromethyl) [1,2,4]triazolo [1,5-a]pyrimidin-7-yl]amino} propan-2-ol], the Ki is 19 nM.

On to `OCc1cc(NC2(c3ccc(C(F)(F)F)c(F)c3)CC2)n2ncnc2n1` [Example 78, [7-({1-[3-Fluoro-4-(trifluoromethyl)phenyl]cyclopropyl}amino)[1,2,4]triazolo[1,5-a]pyrimidin-5-yl]methanol], for which the Ki is 92 nM.

Regarding `Cc1cc(N[C@@H](c2ccc(S(F)(F)(F)(F)F)cc2)C(C)C)n2ncnc2n1` [Example 22, 5-Methyl-N-{(1R)-2-methyl-1-[4-(pentafluoro-λ^6-sulfanyl)phenyl]propyl}[1,2,4]triazolo[1,5-a] pyrimidin-7-amine], the Ki came out at 13 nM.

Turning to `CC(C)(O)C(Nc1cc(C(F)F)nc2ncnn12)c1ccc(C(F)(F)F)c(F)c1` (single isomer, unassigned) [Example 228, (S)- or (R)-1-(5-(Difluoromethyl)-[1,2,4]triazolo [1,5-a]pyrimidin-7-ylamino)-1-(3-fluoro-4-(trifluoromethyl)phenyl)-2-methylpropan-2-ol], the Ki was more than 2960 nM.

As to `Cc1cc(N[C@@H](c2ccc(C(F)(F)F)c(F)c2)C2CC2)n2ncnc2n1` [Example 39, N-{(R)-Cyclopropyl[3-fluoro-4-(trifluoromethyl)phenyl]methyl}-5-methyl[1,2,4]triazolo[1,5-a] pyrimidin-7-amine], the Ki stood at 49 nM.

With `Cc1cc(N[C@@H](c2ccc(OC(F)(F)F)cc2)C(C)(C)O)n2ncnc2n1` [Example 96, (1S)-2-Methyl-1-[(5-methyl [1,2,4]triazolo[1,5-a]pyrimidin-7-yl)amino]-1-[4-(trifluoromethoxy)phenyl]propan-2-ol], the Ki came out at 15 nM.

On to `CC(C)(O)C(Nc1cc(C(F)(F)F)nc2ncnn12)c1ccc(C(F)(F)F)c(F)c1` (single isomer, unassigned) [Example 213, (S)- or (R)-1-(3-Fluoro-4-(trifluoromethyl)phenyl)-2-methyl-1-(5-(trifluoromethyl)-[1,2,4]triazolo [1,5-a]pyrimidin-7-ylamino)propan-2-ol], for which the Ki is more than 2960 nM.

Consider `Cc1cc(N[C@@H](c2ccc(OC(F)(F)F)c(Cl)c2)C(C)(C)O)n2ncnc2n1` [Example 102, (1S)-1-[3-Chloro-4-(trifluoromethoxy)phenyl]-2-methyl-1-[(5-methyl[1,2,4]triazolo[1,5-a]pyrimidin-7-yl)amino]propan-2-ol], for which the Ki is 14 nM.

`CC(C)(C)c1cc(NC(c2ccc(OC(F)(F)F)c(F)c2)C(C)(C)O)n2ncnc2n1` (single isomer, unassigned) [Example 146, (1S or R)-1-[(5-tert-Butyl[1,2,4]triazolo[1,5-a]pyrimidin-7-yl)amino]-1-[3-fluoro-4-(trifluoro-methoxy)phenyl]-2-methylpropan-2-ol]: the Ki was more than 2960 nM.

As to `COc1cc(N[C@H](c2ccc(C(F)(F)F)c(F)c2)C(C)(C)O)n2ncnc2n1` (single isomer, unassigned) [Example 236], the Ki was found to be 210 nM.

As for `CNc1cc(N[C@@H](c2ccc(C(F)(F)F)c(F)c2)C(C)(C)C)n2ncnc2n1` [Example 241, (R)-N^7-(1-(3-Fluoro-4-(trifluoromethyl)phenyl)-2,2-dimethylpropyl)-N^5-methyl-[1,2,4]triazolo [1,5-a]pyrimidine-5,7-diamine], the Ki stood at 375 nM.
